Here are results for 5 compounds from patent publication US12319690B2, “Selective CDK 4/6 inhibitor cancer therapeutics” (LUNELLA BIOTECH, INC., priority 2019, dated 2025).

Holding throughout (type): cell-based, human
Data set [1] relates to MCF7 cell line (ER+ breast cancer). The data set can be described thus: 3D-mammosphere formation assay. Particulars: for IC50: Homo sapiens, MCF7, 3D-mammosphere assay; for inhibition of MCF7 cells in the mammosphere assay compared to parent compound: concentrations from 1 μM to 100 μM; for SI (mammosphere/monolayer MCF7): mammosphere selectivity index, ratio between IC50 values in the 3D and 2D assays against MCF7. An excerpt: As used in the tables, “IC50 (MCF7 mammosphere)” refers to the half maximal inhibitory concentration in the 3D-mammosphere assay, using the ER+ breast cancer cell line, MCF7. The term “IC50 (MCF7 monolayer)” refers to the half maximal inhibitory concentration in the 2D-cell viability assay, using the ER+ breast cancer cell line, MCF7. The term “IC50 (BJ1 monolayer)” refers to the half maximal inhibitory concentration in the 2D-cell viability assay, using the immortalized non-tumoral fibroblast cell line, hTERT-BJ1. The term “SI (mammosphere/monolayer MCF7)” refers to the mammosphere selectivity index, a ratio between IC50 values comparing the biological activity in the 3D and 2D assays against MCF7. The term “SI (BJ1/MCF7 monolayer)” refers to the cancer selectivity index, a ratio between IC50 values comparing the biological activity in the cell viability assays against MCF7 and hTERT-BJ1.
FIGS. 1-3 are dose-response curves for various compounds described herein, using the mammosphere assay. The assay was performed using the MCF7 cell line. The curves are plotted as a mean of two independent experiments, and the standard deviation for each point is represented by vertical bars. The inhibition percentage is shown as a function of the log of the concentration (μM). […] Similar effects are expected for compounds having the general formula [1D].
Mammosphere formation assay: A single cell suspension was prepared using enzymatic (1× Trypsin-EDTA, Sigma Aldrich, cat. #T3924), and manual disaggregation (25 gauge needle). Five thousand cells were plated with in mammosphere medium (DMEM-F12/B27/20 ng/ml EGF/PenStrep), under non-adherent conditions, in six wells plates coated with 2-hydroxyethylmethacrylate (poly-HEMA, Sigma, cat. #P3932). Cells were grown for 5 days and maintained in a humidified incubator at 37° C. at an atmospheric pressure in 5% (v/v) carbon dioxide/air. After 5 days, 3D spheroids with a diameter greater than 50 μm were counted using a microscope, fitted with a graticule eye-piece, and the percentage of cells which formed spheroids was calculated and normalized to one (1=100% MFE; mammosphere forming efficiency). Mammosphere assays were performed in triplicate and repeated three times independently.

Data set [2] relates to hTERT-BJ1 (immortalized non-tumoral fibroblast cell line). The data set can be described thus: 2D-cell viability assay (Hoechst staining), hTERT-BJ1 monolayer. Particulars: for IC50: Homo sapiens, Fibroblast, 2D-cell viability assay, hTERT-BJ1; for SI (BJ1/MCF7 monolayer): cancer selectivity index, ratio between IC50 values in cell viability assays against MCF7 and hTERT-BJ1. An excerpt:
(§1) As used in the tables, “IC50 (MCF7 mammosphere)” refers to the half maximal inhibitory concentration in the 3D-mammosphere assay, using the ER+ breast cancer cell line, MCF7. The term “IC50 (MCF7 monolayer)” refers to the half maximal inhibitory concentration in the 2D-cell viability assay, using the ER+ breast cancer cell line, MCF7. The term “IC50 (BJ1 monolayer)” refers to the half maximal inhibitory concentration in the 2D-cell viability assay, using the immortalized non-tumoral fibroblast cell line, hTERT-BJ1. The term “SI (mammosphere/monolayer MCF7)” refers to the mammosphere selectivity index, a ratio between IC50 values comparing the biological activity in the 3D and 2D assays against MCF7. The term “SI (BJ1/MCF7 monolayer)” refers to the cancer selectivity index, a ratio between IC50 values comparing the biological activity in the cell viability assays against MCF7 and hTERT-BJ1. A Hoechst-based viability assay was used to characterize the selectivity of compounds according to the present approach, for the preferential targeting of cancer cells. Briefly, MCF7 cell monolayers were treated with a compound at concentrations ranging from 1 μM to 100 μM, for a period of one day. Cell viability was assessed using Hoechst 33342, a nuclear dye that stains DNA in live cells. The viability of normal human fibroblasts (hTERT-BJ1) treated with the compounds described herein was also assessed in parallel. Quantitation was performed with a plate-reader.

The test system of data set [3] is MCF7 cell line (ER+ breast cancer). Kind of data set: 2D-cell viability assay (Hoechst staining), MCF7 monolayer. To be noted: for IC50: Homo sapiens, MCF7, 2D-cell viability assay, MCF7.
Source text: as §1

With `CCCCCCCCCCCCCC(=O)N1CCN(c2ccc(Nc3ncc4c(C)c(C(C)=O)c(=O)n(C5CCCC5)c4n3)nc2)CC1` [Compound [2C], 6-acetyl-8-cyclopentyl-5-methyl-2-[[5-(4-tetradecanoylpiperazin-1-yl)-2-pyridyl]amino]pyrido[2,3-d]pyrimidin-7-one], the IC50 in data set [1] (MCF7) was about 5100 nM; in data set [2] it was over 90000 nM; in data set [3] it was over 30000 nM. Moreover, in data set [1], the “inhibition of MCF7 cells in the mammosphere assay compared to parent compound” value is “remarkably improved inhibition”. In addition, in data set [1], the “SI (mammosphere/monolayer MCF7)” value is recorded as over 5. In data set [3] (MCF7 monolayer), the “non-toxic in the 2D-cell viability assay up to a concentration” value was at most 30 µM.
Take `CCCCCCCCCCCCCC(=O)N1CCN(c2ccc(Nc3ncc4cc(C(=O)N(C)C)n(C5CCCC5)c4n3)nc2)CC1` [Compound [1C], 7-cyclopentyl-N,N-dimethyl-2-[[5-(4-tetradecanoylpiperazin-1-yl)-2-pyridyl]amino]pyrrolo[2,3-d]pyrimidine-6-carboxamide]: the IC50 in data set [1] (MCF7) was about 200 nM. Further, the “inhibition of cell propagation” value in data set [1] (at concentrations as low as 1 μM, preliminary laboratory evaluations) is about 100%. Also, in data set [1], the “inhibition of MCF7 cells in the mammosphere assay compared to parent compound” value was “remarkably improved inhibition” and the “SI (mammosphere/monolayer MCF7)” value is on record as 10. The “fold improvement in potency in the 3D-mammosphere assay compared to the parent compound” value in data set [1] (vs. Ribociclib, MCF7) was found to be 7 fold. In data set [2], the IC50 is over 90000 nM and the “SI (BJ1/MCF7 monolayer)” value is recorded as over 45. For the same compound, the “potency against MCF7 cells compared to parent compound (dose-response curves)” value in data set [3] (Hoechst staining assay, MCF7, FIG. 4 (FIG. 1 cited in same passage)) is “more potent”. The IC50 in data set [3] is about 2000 nM.
`CN(C)C(=O)c1cc2cnc(Nc3ccc(N4CCNCC4)cn3)nc2n1C1CCCC1` [Ribociclib, 7-cyclopentyl-N,N-dimethyl-2-[(5-piperazin-1-ylpyridin-2-yl)amino]pyrrolo[2,3-d]pyrimidine-6-carboxamide]: the results for the IC50 in data set [1] (MCF7), in data set [2] and in data set [3] were about 1500 nM, over 90000 nM and about 2000 nM, respectively. Further, the “SI (mammosphere/monolayer MCF7)” value in data set [1] was 1.3. Further, in data set [2] (Hoechst staining assay, hTERT-BJ1, FIG. 7), the “potency on hTERT-BJ1 compared to Compound [1C] (dose-response curves)” value is listed as “more potent at most concentrations tested”. For the same compound, the “SI (BJ1/MCF7 monolayer)” value in data set [2] is listed as over 45.
With `CCN1CCN(Cc2ccc(Nc3ncc(F)c(-c4cc(F)c5nc(C)n(C(C)C)c5c4)n3)nc2)CC1` [Abemaciclib], the IC50 in data set [1] (MCF7) was under 40 nM; in data set [2] (Table 3, unit inferred) it was 30000 ± 6000 nM; in data set [3], 11000 nM. Further, the “SI (mammosphere/monolayer MCF7)” value in data set [1] was over 50. The “SI (BJ1/MCF7 monolayer)” value in data set [2] came out at 2.7.
Regarding `CC(=O)c1c(C)c2cnc(Nc3ccc(N4CCNCC4)cn3)nc2n(C2CCCC2)c1=O` [Palbociclib, 6-acetyl-8-cyclopentyl-5-methyl-2-(5-piperazin-1-yl-pyridin-2-ylamino)-8H-pyrido[2,3-d]pyrimidin-7-one], the IC50 was about 200 nM in data set [1] (MCF7), over 90000 nM in data set [2] and about 100 nM in data set [3]. Also, in data set [1], the “SI (mammosphere/monolayer MCF7)” value is reported as “non-selective”. The “SI (BJ1/MCF7 monolayer)” value in data set [2] is reported as over 900.
